Peptide text beside a SMILES is read from it. * marks the point of attachment. Palmitoyl = CCCCCCCCCCCCCCCC(=O)*
Experiments:
rat thoracic aorta rings = target: T1, rat thoracic aorta rings (Rattus norvegicus, UniProt P49684); assay: Modulation of URP-mediated rat aortic ring contraction; details: pepducin 10^−6 M 30 min prior to URP, percentage of KCl (40 mM) contraction divided by tissue response to URP (10^−6 M), mean ± SEM, n = 5, read-out: URP Emax after pepducin pretreatment
T1 sequence (P49684 1-386): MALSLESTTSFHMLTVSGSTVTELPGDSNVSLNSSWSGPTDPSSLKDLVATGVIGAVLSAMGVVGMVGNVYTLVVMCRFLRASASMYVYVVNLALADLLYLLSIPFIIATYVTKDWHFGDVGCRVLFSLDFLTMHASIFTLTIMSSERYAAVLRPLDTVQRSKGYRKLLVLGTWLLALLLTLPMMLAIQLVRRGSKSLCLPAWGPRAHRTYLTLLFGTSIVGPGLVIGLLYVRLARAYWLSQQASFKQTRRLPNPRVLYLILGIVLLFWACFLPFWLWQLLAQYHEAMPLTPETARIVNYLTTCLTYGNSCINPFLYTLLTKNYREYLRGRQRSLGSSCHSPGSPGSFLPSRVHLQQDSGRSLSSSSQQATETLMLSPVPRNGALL
Procedure: Each replicate (n) was conducted on tissue obtained from at least three different animals. Data represent mean ± SEM.
Adult male Sprague-Dawley rats (Charles-River) weighing 250–300 g were housed in cages under controlled illumination (12:12 h light–dark cycle), humidity, and temperature (21–23 °C) and had free access to tap water and rat chow. All experimental procedures were performed in accordance with regulations and ethical guidelines from the Canadian Council for the Care of Laboratory Animals and received approvals of the institutional animal care and use committee of the Institut National de la Recherche Scientifique—Centre Armand-Frappier Santé Biotechnologie. As previously described ([17], [18]), the thoracic aorta was cleared of surrounding tissue and then excised from the aortic arch to the diaphragm. Conjunctive tissues were next removed from the thoracic aorta and the vessels were divided into five rings of 4 mm. The endothelium of each aortic ring was removed by gently rubbing the vessel intimal surface. Aortic rings were then placed in a 5 ml organ bath filled with oxygenated normal Krebs–Henseleit buffer. Eighty microliters of a 2.5 M potassium chloride solution (40 mM final concentration) was used to evaluate maximal contractile responses of each vessel. […] Cumulative concentration–response curves to synthetic peptides were obtained by increasing the concentration of each peptide in the remaining organ chambers (10^−11–10^−5 M).

Circular dichroism = format: physicochemical; details: peptide 0.2 mg mL^−1, 20 °C
Procedure: Circular dichroism (CD) analyses were performed in a JASCO J-815 (JAPAN Spectroscopy & Chromatography Technology) spectropolarimeter coupled to a temperature controller Peltier. Samples were dissolved at 0.2 mg mL^−1 in either water, 0.5 mg mL^−1 DPC (dodecylphophocholine), 0.1 mg mL^−1 SDS (sodium dodecyl sulfate), or TFE (2,2,2-trifluoroethanol) aqueous solutions at concentrations of 20%, 50%, and 80%. The CD spectra were recorded in the measured range of 200–250 nm using a scan speed of 50 nm min^−1, and the baseline was corrected by subtraction of the solvent spectrum. The temperature was set to 20 °C.

HEK 293 cells = assay: EGFR transactivation (EGFR-GFP internalization, confocal microscopy), untransfected/mock HEK 293 cells; format: cell-based; details: HEK 293, 30 min
Procedure: Figure 7 UT-pepducins-mediated transactivation of EGFR following hUT activation. […] EGFR internalization, following hUT stimulation with various ligands for 30 min, was visualized using confocal microscopy. The images shown are from representative experiments repeated at least three times.
HEK 293 and HEK 293-hUT cells, transiently transfected with cDNA encoding fluorescently labeled EGFR (EGFR-GFP) (2 μg), were plated onto 35-mm glass-bottomed culture dishes (MatTek Corp). Following stimulation, cells were washed once with PBS and fixed in 4% paraformaldehyde for 15 min. To study the involvement of Gq in EGFR internalization, cells were treated with YM254890 (100 nM) for 1h prior peptide treatments. […] EGFR-GFP internalization was visualized using a combination of excitation (488 nm) and emission filters (499 and 520 nm). […]
endogenously expressed hUT activation in untransfected HEK 293 cells.HEK 293 expressing low level of wild type hUT and transfected […]
using confocal microscopy. The image shown are from representative experiments repeated at least three times. Arrows indicate cellular aggregates representing EGFR internalization.
(1 picture or pasted object on this page, not shown here)

Structure (SMILES): CCCCCCCCCCCCCCCC(=O)N[C@@H](Cc1c[nH]c2ccccc12)C(=O)N[C@@H](CC(C)C)C(=O)N[C@@H](CO)C(=O)N[C@@H](CCC(N)=O)C(=O)N[C@@H](CCCNC(=N)N)C(=O)N[C@@H](C)C(=O)N[C@@H](CO)C(=O)N[C@@H](Cc1ccccc1)C(=O)N[C@@H](CCCCN)C(=O)N[C@@H](CCCNC(=N)N)C(=O)N[C@@H](C)C(=O)N[C@@H](CCCNC(=N)N)C(=O)N[C@@H](CCCNC(=N)N)C(N)=O [[Trp^1, Leu^2]hUT-Pep3] (Palmitoyl-WLSQRASFKRARR-NH2)
- Emax (rat thoracic aorta rings): 16 ± 2%
- CD conformation in SDS (Circular dichroism; 0.1 mg mL^−1 SDS): β-sheet conformation (lower peak at 216 nm)
- CD conformation in DPC (Circular dichroism; 0.5 mg mL^−1 DPC): less structured α-helix conformation
- CD conformation in TFE (Circular dichroism; TFE 80%): fold as an α-helix (dark green, TFE 80%, lower peaks at 205 and 216 nm)
- CD conformation in water (Circular dichroism; water): nonstructured shape (random coil)

Structure (SMILES): CC(C)[C@H](NC(=O)[C@@H]1CSSC[C@H](NC(=O)[C@H](CC(=O)O)NC(=O)[C@@H]2CCCN2C(=O)[C@@H](NC(=O)[C@@H](N)CCC(=O)O)[C@@H](C)O)C(=O)N[C@@H](Cc2ccccc2)C(=O)N[C@@H](Cc2c[nH]c3ccccc23)C(=O)N[C@@H](CCCCN)C(=O)N[C@@H](Cc2ccc(O)cc2)C(=O)N1)C(=O)O [hUII, urotensin II, reference compound]
- EGFR internalization in untransfected/mock-transfected cells (HEK 293 cells): limited EGFR internalization can be observed in untransfected HEK 293 cells

Structure (SMILES): CCCCCCCCCCCCCCCC(=O)N[C@@H](CCCNC(=N)N)C(=O)N1CCC[C@H]1C(=O)N[C@@H](CC(C)C)C(=O)N[C@@H](CC(=O)O)C(=O)N[C@H](C(=O)N[C@H](C(=O)N[C@@H](CCC(N)=O)C(=O)N[C@@H](CCCNC(=N)N)C(=O)N1CCC[C@H]1C(=O)N[C@@H](CCCCN)C(=O)NCC(=O)N[C@@H](Cc1ccc(O)cc1)C(N)=O)C(C)C)[C@@H](C)O [hUT-Pep2] (Palmitoyl-RPLDTVQRPKGY-NH2)
- Emax (rat thoracic aorta rings): 76 ± 8%

— paper PMC8424217 (The Journal of Biological Chemistry, 2021)
